The results in this text go back to ChEMBL document CHEMBL1144266, “Synthesis and biological evaluation of 3-benzyl-1-methyl- and 1-methyl-3-phenyl-isothioureas as potential inhibitors of iNOS” (2005).

Common to all, as to type: functional, Mus musculus
Assay [1] deals with J774.A1. Briefly: Percent inhibition of nitrite release in lipopolysaccharide (LPS) treated J774.A1 macrophage cell lines at concentration of 1E-3 M.
Assay [2] deals with J774.A1. Briefly: Percent inhibition of nitrite release in lipopolysaccharide (LPS) treated J774.A1 macrophage cell lines at concentration of 1E-5M.
For assay [3], the system named is J774.A1. Briefly: Percent inhibition of nitrite release in lipopolysaccharide (LPS) treated J774.A1 macrophage cell lines at concentration of 1E-6M.
Assay [4] concerns J774.A1. Nature of the assay: Percent inhibition of nitrite release in lipopolysaccharide (LPS) treated J774.A1 macrophage cell lines at concentration of 1E-7M.
The test system of assay [5] is J774.A1. Briefly: Percent inhibition of nitrite release in lipopolysaccharide (LPS) treated J774.A1 macrophage cell lines at concentration of 1E-8M.

As a reminder, the Inhibition is the drop in the measured response relative to a control, in per cent. As for `CCCS/C(=N\C)Nc1ccc(C)cc1`, the Inhibition with J774.A1 [1] worked out at 83.42%; with J774.A1 [2], 2.08%; with J774.A1 [3], 1.54%.
For `CN/C(=N\c1ccccc1C)SC`, the Inhibition in the assay on J774.A1 [1] worked out at 75.1%; in the assay with J774.A1 [2], 17.45%; with J774.A1 [3], 8.32%.
On the same counts, the results for `CCS/C(=N\C)Nc1ccccc1C` are 65.21%, 15.33% and 7.44%.
For `COC(=O)[C@@H](N)CCCNC(=N)N[N+](=O)[O-]` [L-NAME], the Inhibition in the assay with J774.A1 [1] came out at 69.49%; with J774.A1 [2] it was 20.37%; in the assay with J774.A1 [3], 12.8%.
On the same counts, the results for `CN/C(=N\c1ccccc1)SC` are 65%, 8.65% and 5.1%.
On the same counts, the results for `CCCS/C(=N\C)Nc1cccc(F)c1` are 53.91%, 11.11% and 7%.
For `C/N=C(/Nc1ccccc1F)SC(C)C`, the figures for the Inhibition in the assay with J774.A1 [1], in the assay on J774.A1 [2] and in the assay with J774.A1 [3] were 67.71%, 9.91% and 2.76%, respectively.
In the case of `CCS/C(=N\C)Nc1ccc(C)cc1`, the Inhibition was determined as 56.82% with J774.A1 [1], 0% in the assay on J774.A1 [2] and 0% in the assay on J774.A1 [3].
Consider `CCS/C(=N\C)Nc1ccc(Cl)cc1`, for which the Inhibition with J774.A1 [1] was determined as 54.05%; in the assay with J774.A1 [2], 10.45%; with J774.A1 [3], 0.5%.
On the same counts, the results for `CN/C(=N\c1cccc(Cl)c1)SC` are 45.38%, 12.33% and 4.06%.
Regarding `CCCS/C(=N\C)Nc1ccc(F)cc1`, the values for the Inhibition in the assay on J774.A1 [1], in the assay with J774.A1 [2] and in the assay on J774.A1 [3] were 53.45%, 10.67% and 4%, respectively.
In the same order, the values of `C/N=C(/Nc1ccc(F)cc1)SC(C)C` are 61.45%, 9.03% and 4.76%.
On the same counts, the results for `CCS/C(=N\C)Nc1ccccc1` are 76.76%, 2.67% and 1.67%.
Consider `CN/C(=N/Cc1ccccc1)SC`, for which the Inhibition in the assay with J774.A1 [2] was -54.53%; with J774.A1 [3], -9.54%; in the assay on J774.A1 [4], -5.96%; in the assay with J774.A1 [5], -2.65%.
On to `CCCS/C(=N\C)Nc1cccc(Cl)c1`, for which the Inhibition in the assay with J774.A1 [1] amounted to 58.45%; in the assay with J774.A1 [2], 9.34%; in the assay on J774.A1 [3], 5.01%.
In the same order, the values of `CCCS/C(=N\C)Nc1cccc(C)c1` are 78.34%, 12.09% and 8.31%.
On the same counts, the results for `CN/C(=N\c1ccc(C)cc1)SC` are 67.8%, 18.1% and 4.67%.
For `CCCS/C(=N\C)NCc1ccccc1`, the Inhibition in the assay with J774.A1 [2] was -39.58%; in the assay on J774.A1 [3] it was -33.71%; with J774.A1 [4] it was -31.36%; in the assay on J774.A1 [5] it was -7.96%.
As to `CN/C(=N\c1cccc(C)c1)SC`, the Inhibition in the assay on J774.A1 [1] amounted to 75%; in the assay with J774.A1 [2], 15.34%; in the assay with J774.A1 [3], 7.03%.
In the same order, the values of `CCS/C(=N\C)Nc1ccc(F)cc1` are 60.56%, 9.45% and 5.98%.
On the same counts, the results for `CCS/C(=N\C)Nc1ccccc1F` are 40.01%, 9.76% and 3.02%.
As for `CN/C(=N\c1ccccc1Cl)SC`, the Inhibition with J774.A1 [1] is listed as 21.32%; in the assay with J774.A1 [2], 4.67%; with J774.A1 [3], 2.9%.
In the same order, the values of `CCCS/C(=N\C)Nc1ccccc1` are 65.78%, 15.7% and 4.65%.
On the same counts, the results for `C/N=C(/Nc1cccc(C)c1)SC(C)C` are 68.77%, 18.55% and 19.89%.
In the case of `CCCS/C(=N\C)Nc1ccc(Cl)cc1`, the figures for the Inhibition in the assay with J774.A1 [1], in the assay with J774.A1 [2] and in the assay with J774.A1 [3] were 50.04%, 5.08% and 1.1%, respectively.
In the same order, the values of `CN/C(=N\c1cccc(F)c1)SC` are 66.9%, 9.34% and 5.23%.
On the same counts, the results for `CCCS/C(=N\C)Nc1ccccc1Cl` are 11.45%, 9.55% and 1.1%.
In the same order, the values of `C/N=C(/Nc1cccc(Cl)c1)SC(C)C` are 46.9%, 8% and 7.09%.
`C/N=C(/Nc1ccccc1)SC(C)C`: the Inhibition in the assay with J774.A1 [1] was found to be 81.5%; with J774.A1 [2] it was 19.75%; in the assay with J774.A1 [3] it was 13.21%.
In the same order, the values of `C/N=C(/Nc1ccccc1Cl)SC(C)C` are 16.21%, 8.69% and 3.21%.
Turning to `C/N=C(/Nc1ccc(Cl)cc1)SC(C)C`, the Inhibition with J774.A1 [1] is listed as 48.09%; in the assay with J774.A1 [2], 7.09%; in the assay on J774.A1 [3], 8.21%.
In the same order, the values of `CCS/C(=N\C)Nc1ccccc1Cl` are 19.55%, 10.21% and 2.9%.
On the same counts, the results for `CN/C(=N\c1ccccc1F)SC` are 52.45%, 6.01% and 1.56%.
Consider `C/N=C(/Nc1ccccc1C)SC(C)C`, for which the Inhibition in the assay with J774.A1 [1] was 85.21%; with J774.A1 [2], 18.78%; in the assay on J774.A1 [3], 13.56%.
Turning to `CCS/C(=N\C)Nc1cccc(F)c1`, the Inhibition in the assay with J774.A1 [1] is 59.45%; with J774.A1 [2], 10.21%; with J774.A1 [3], 6.23%.
In the same order, the values of `CCS/C(=N\C)Nc1cccc(C)c1` are 81.03%, 14.02% and 6.79%.
In the same order, the values of `CCCS/C(=N\C)Nc1ccccc1C` are 81.01%, 11.45% and 8.12%.
As for `C/N=C(/Nc1cccc(F)c1)SC(C)C`, the values for the Inhibition in the assay on J774.A1 [1], with J774.A1 [2] and in the assay on J774.A1 [3] were 66.98%, 10.04% and 4.23%, respectively.
Take `CCS/C(=N\C)Nc1cccc(Cl)c1`: the Inhibition in the assay with J774.A1 [1] stood at 41.56%; in the assay with J774.A1 [2] it was 11.56%; in the assay on J774.A1 [3] it was 3.44%.
On the same counts, the results for `CN/C(=N\c1ccc(Cl)cc1)SC` are 69.05%, 7.55% and 2.9%.
In the same order, the values of `CCCS/C(=N\C)Nc1ccccc1F` are 65.61%, 11.26% and 4.15%.
On the same counts, the results for `C/N=C(/Nc1ccc(C)cc1)SC(C)C` are 73.14%, 28.11% and 39.8%.
`CCS/C(=N\C)NCc1ccccc1`: the Inhibition is reported as -26.84% in the assay on J774.A1 [2], -23.65% in the assay on J774.A1 [3], -2.41% with J774.A1 [4] and -7.28% in the assay on J774.A1 [5].
